Reference: patent publication US12629390B2, “Stabilized amorphous calcium carbonate for treatment of neurological, muscular and infertility diseases or conditions” (AMORPHICAL LTD., priority 2016, dated 2026)

Tested on: mice embryos
Assay: in vitro embryo development in Quinn's Advantage cleavage media
Type: cell-based
Description: CBA male mice were bred with BL C57 female mice. The mice were kept on a 12 hours photoperiod schedule with unlimited water and food supply. About 6 to 8 weeks after receiving offspring, each female mouse was injected IP with 5IU of pregnant mare serum gonadotropin (PMSG).
After 48 hours each female mouse was injected IP with 5IU human chorionic gonadotropin (hCG). Male mice proven to be fertile were then put together with the superovulated females. The next morning the female mice were examined for the presence of copulatory plugs. Females that had copulatory plugs were euthanized after 24 hours (approximately 36 hours post-coitus) and embryos at 2 cell stage were retrieved from the oviducts as following: the oviducts were dissected in Quinn's Advantage cleavage media (SAGE, Origio, Denmark) and the embryos were transferred to 20 μL drops with Quinn's Advantage cleavage media (SAGE, Origio, Denmark) overlaid with mineral oil and cultured at 37.0° C. under 5% CO2 and atmospheric oxygen. The collected embryos continued to grow, i.e. in-vitro culture (IVC), until blastocyst/hatching stage. To test the effect of amorphous calcium carbonate, the Quinn's Advantage cleavage media (“cleavage media” hereinafter) was supplemented with different additives, i.e. amorphous calcium carbonate stabilized by polyphosphate (ACC-PP), crystalline calcium carbonate (CCC), polyphosphate (PP), phosphoserine (PS) or sodium carbonate ([…]). All supplements were added as a freshly prepared suspension; the preparation of the ACC supplements were performed under aseptic conditions. Untreated cleavage media (without addition of any additive) was used as a control (identified as Cont Q). The embryos were evaluated every day by microscope observation for a detection of the following stages: 2 cells, compactions stage, blastocysts formation and hatching stage. The fraction (in percent) of the embryos reached each stage was calculated (the number of 2 cells embryos was set as 100%).

[1] = Example 9 Test A, 1.7 mM in cleavage media
[2] = Example 9 Test B, 1.7 mM CaCl2 or ACC-PP in cleavage media
[3] = Example 10, 1.7 mM CaCl2 or ACC-PP in cleavage media
[4] = Example 11, 1.7 mM in cleavage media
[5] = Example 12, mouse 1, embryos grown separately, 1.7 mM in cleavage media
[6] = Example 12, mouse 2, embryos grown separately, 1.7 mM in cleavage media
[7] = Example 12, mouse 3, embryos grown separately, 1.7 mM in cleavage media
[8] = Example 12, mouse 4, embryos grown separately, 1.7 mM in cleavage media
[9] = Example 16, pooled embryos, 1.7 mM in cleavage media

[Ca+2].[Cl-].[Cl-] [CaCl2, calcium chloride]
Blast/d3: number of embryos [1]: 16 | Blast/d3: portion of the initial number of embryos [1]: 64% | Comp/d2: portion of the initial number of embryos [1]: 64% | comp/d2: number of embryos [1]: 16 | Blast/d3: number of embryos [2]: 20 | Blast/d3: portion of the initial number of embryos [2]: 74% | Comp/d2: portion of the initial number of embryos [2]: 70% | Hatch/d4: number of embryos [2]: 11 | Hatch/d4: portion of the initial number of embryos [2]: 40.7% | comp/d2: number of embryos [2]: 20 | Blast/d3: number of embryos [3]: 8 | Blast/d3: portion of the initial number of embryos [3]: 80% | Comp/d2: portion of the initial number of embryos [3]: 30% | Hatch/d4: number of embryos [3]: 3 | Hatch/d4: portion of the initial number of embryos [3]: 30% | comp/d2: number of embryos [3]: 3 | Blast/d3: number of embryos [4]: 24 | Blast/d3: portion of the initial number of embryos [4]: 80% | Comp/d2: portion of the initial number of embryos [4]: 53.3% | Hatch/d4: number of embryos [4]: 13 | Hatch/d4: portion of the initial number of embryos [4]: 43.3% | comp/d2: number of embryos [4]: 16 | 2Cell/d1: number of embryos [5]: 3 | 8Cell/d2: number of embryos [5]: 2 | Blast/d3: number of embryos [5]: 1 | Blast/d3: portion of the initial number of embryos [5]: 8.3% | Hatch/d4: number of embryos [5]: 0 (0) | Hatch/d4: portion of the initial number of embryos [5]: 0 (0) % | comp/d2: number of embryos [5]: 1 | irreg/d1: number of embryos [5]: 9 | 2Cell/d1: number of embryos [6]: 3 | 8Cell/d2: number of embryos [6]: 0 | Blast/d3: number of embryos [6]: 2 | Blast/d3: portion of the initial number of embryos [6]: 22.2% | Hatch/d4: number of embryos [6]: 0 (0) | Hatch/d4: portion of the initial number of embryos [6]: 0 (0) % | comp/d2: number of embryos [6]: 3 | irreg/d1: number of embryos [6]: 6 | 2Cell/d1: number of embryos [7]: 7 | 8Cell/d2: number of embryos [7]: 0 | Blast/d3: number of embryos [7]: 5 | Blast/d3: portion of the initial number of embryos [7]: 50% | Hatch/d4: number of embryos [7]: 3 | Hatch/d4: portion of the initial number of embryos [7]: 30% | comp/d2: number of embryos [7]: 6 | irreg/d1: number of embryos [7]: 3 | 2Cell/d1: number of embryos [8]: 14 | 8Cell/d2: number of embryos [8]: 4 | Blast/d3: number of embryos [8]: 12 | Blast/d3: portion of the initial number of embryos [8]: 66.7% | Hatch/d4: number of embryos [8]: 7 | Hatch/d4: portion of the initial number of embryos [8]: 41.2% | comp/d2: number of embryos [8]: 10 | irreg/d1: number of embryos [8]: 4 | effect on embryonic development (percentages of blastocysts and hatched blastocysts) (Example 16, 1.7 mM in cleavage media): negative effect | 8 cell/d2: number of embryos [9]: 6 | Blast/d3: number of embryos [9]: 10 | Blast/d3: portion of the initial number of embryos [9]: 90.90% | Hatch/d4: number of embryos [9]: 4 | Hatch/d4: portion of the initial number of embryos [9]: 36.36% | comp/d2: number of embryos [9]: 5
